{"source": "patent US20070149408A1", "about": "“METHOD FOR REDUCING NITROSAMINES IN TOBACCO” (UNIVERSITY OF KENTUCKY RESEARCH FOUNDATION, priority 2005, published 2007)", "key": {"[1]": {"test_system": "whole tobacco leaf", "assay": "TSNA in cured tobacco, ferulic acid added to the smoke during fire curing (Example 6)", "conditions": "ferulic acid in wood smoke, versus untreated (Table 6)", "text": "In a conventional dark fire tobacco barn, wood lumber was laid on the floor of the barn and sawdust was spread on top of the wood. The lumber was set on fire and the sawdust smoldered and generated wood smoke. Ferulic acid, solid granular, from a conventional source, was sprinkled over the top of the sawdust at the start of the fire curing process and was applied in an amount of one pound per acre of tobacco in the barn, about 5000 tobacco plants. The fire curing started one or two days after the tobacco was harvested and hung in the barn. The ferulic acid lasted about one week on the sawdust during the fire curing.\nThe fire curing was conducted for a total of 40 days.\nAfter curing, random leaves were collected from the treated tobacco and from the untreated tobacco. Both treated and untreated tobacco were of the same variety and came from two different barns. The untreated tobacco came from a different barn but was fire cured in the same manner as the treated tobacco except for the ferulic acid treatment."}, "[2]": {"test_system": "whole tobacco leaf", "assay": "Total TSNA in cured tobacco, ferulic acid, ethanol and surfactant sprayed two days before harvest (Example 4)", "conditions": "ferulic acid + ethanol + DE FAC 820, versus untreated (Table 4)", "procedure": "Tobacco plants were treated by spraying them in the field with an aqueous solution comprising 0.25% wt. by vol. of ferulic acid, 5 gallons ethanol (95%), 250 gallons water and 0.25% by vol. of a non-ionic surfactant (DE FAC 820). This gave a 2% ethanol solution. Fifty (50) gallons of aqueous solution was applied per acre for the treated plants.\nTreated and non-treated tobacco was harvested and cured in a conventional dark fire tobacco barn with manual vents for aeration for 6 weeks, one week of natural ventilation followed by five weeks of wood fire curing in a conventional manner. The curing was conducted in a conventional curing barn as is typically found in the dark tobacco production regions of Kentucky and Tennessee. Both the treated and untreated tobacco were the same variety and harvested at the same time.\nRandom leaves were removed from the cured treated and cured untreated tobacco and TSNA was measured in accordance with Example 1."}}}
{"smiles": "COc1cc(C=CC(=O)O)ccc1O", "note": "[ferulic acid, 4-hydroxy-3-methoxy cinnamic acid]", "values": [{"measurement": "reduction in TSNA", "setting": "[1]", "result": 35, "unit": "%"}, {"measurement": "reduction in TSNA", "setting": "[2]", "result": 85, "unit": "%"}]}
